In US20260347347A1, “2-AZA-AND 2-OXABICYCLO[2.1.1]HEXANE DERIVATIVES AS FACTOR XIIA ENZYME INHIBITORS” (KALVISTA PHARMACEUTICALS LIMITED, priority 2022, published 2026):

molecular target: T1, Human Factor XIIa (Homo sapiens, UniProt P00748); assay: Determination of FXIIa inhibition (in vitro IC50 assay, fluorogenic substrate H-DPro-Phe-Arg-AFC); assay type: biochemical; details: human Factor XIIa; fluorogenic substrate H-DPro-Phe-Arg-AFC at Km concentration; 5 min, 25 °C; class symbols; read-out: Human FXIIa IC50
T1 construct: purchased Enzyme Research Laboratories
T1 sequence (P00748 373-615 limits assumed): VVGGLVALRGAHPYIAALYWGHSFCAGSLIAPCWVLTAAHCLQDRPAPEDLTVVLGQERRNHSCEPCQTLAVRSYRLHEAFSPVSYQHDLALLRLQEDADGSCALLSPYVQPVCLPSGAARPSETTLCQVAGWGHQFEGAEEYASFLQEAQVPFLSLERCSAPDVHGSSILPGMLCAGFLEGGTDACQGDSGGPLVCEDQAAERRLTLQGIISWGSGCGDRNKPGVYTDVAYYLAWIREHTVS
T1 sequence (P00748 20-372 partner limits assumed): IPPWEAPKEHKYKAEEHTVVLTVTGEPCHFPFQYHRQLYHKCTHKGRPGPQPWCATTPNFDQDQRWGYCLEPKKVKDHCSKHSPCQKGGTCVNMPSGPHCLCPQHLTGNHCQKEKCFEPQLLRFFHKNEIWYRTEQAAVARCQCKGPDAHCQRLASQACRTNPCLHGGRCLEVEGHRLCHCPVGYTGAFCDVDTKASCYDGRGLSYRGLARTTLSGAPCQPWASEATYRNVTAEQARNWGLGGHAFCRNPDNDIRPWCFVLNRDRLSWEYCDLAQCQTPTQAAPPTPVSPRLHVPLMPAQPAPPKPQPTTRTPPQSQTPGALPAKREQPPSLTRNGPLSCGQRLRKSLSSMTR
Procedure: In vitro inhibition of Factor XIIa was determined using an IC50 assay based on standard literature methods (see e.g Baeriswyl et al., ACS Chem. Biol., 2015, 10 (8) 1861; Bouckaert et al., European Journal of Medicinal Chemistry 110 (2016) 181). Human Factor XIIa (Enzyme Research Laboratories) was incubated at 25 °C with the fluorogenic substrate H-DPro-Phe-Arg-AFC (Peptide Protein Science) and various concentrations of the test compound. Protease activity was measured by monitoring the accumulation of liberated fluorescence from the substrate over 5 min at 25 °C. The linear rate of fluorescence increase per minute was expressed as percentage (%) activity. The Km for the cleavage of the substrate by FXIIa was determined by standard transformation of the Michaelis-Menten equation. The compound inhibitor assays were performed at substrate Km concentration. IC50 values were calculated as the concentration of inhibitor giving 50% inhibition (IC50) of the uninhibited enzyme activity (100%).

| SMILES | IC50 [nM] |
| --- | --- |
| Cc1cc(OCC23CN(C(=O)CC45CCC(CC4)C5)C(CNc4cccc5c(N)nccc45)(C2)C3)cc(=O)n1C [Example 22, 4-((1-(((1-aminoisoquinolin-5-yl)amino)methyl)-2-(2-(bicyclo[2.2.1]heptan-1-yl)acetyl)-2-azabicyclo[2.1.1]hexan-4-yl)methoxy)-1,6-dimethylpyridin-2(1H)-one] | 10 to 100 |
| Cc1cc(OCC23CN(C(=O)CC4CCC(F)(F)CC4)C(CNc4cccc5c(N)nccc45)(C2)C3)cc(=O)n1C [Example 23, 4-((1-(((1-aminoisoquinolin-5-yl)amino)methyl)-2-(2-(4,4-difluorocyclohexyl)acetyl)-2-azabicyclo[2.1.1]hexan-4-yl)methoxy)-1,6-dimethylpyridin-2(1H)-one] | 10 to 100 |
| Cc1cc(OCC23CN(C(=O)CC45CC(C4)C5)C(CNc4cccc5c(N)nccc45)(C2)C3)cc(=O)n1C [Example 26, 4-((1-(((1-aminoisoquinolin-5-yl)amino)methyl)-2-(2-(bicyclo[1.1.1]pentan-1-yl)acetyl)-2-azabicyclo[2.1.1]hexan-4-yl)methoxy)-1,6-dimethylpyridin-2(1H)-one] | 10 to 100 |
| CC(C(=O)N1CC2(COc3ccn(C)c(=O)c3)CC1(CNc1cccc3c(N)nccc13)C2)c1ccc2c(c1)CCO2 (stereo not drawn) [Example 27, 4-((1-(((1-aminoisoquinolin-5-yl)amino)methyl)-2-(2-(2,3-dihydrobenzofuran-5-yl)propanoyl)-2-azabicyclo[2.1.1]hexan-4-yl)methoxy)-1-methylpyridin-2(1H)-one] | 10 to 100 |
| Cc1cc(OCC23CN(C(=O)C(C)c4ccc5c(c4)CCO5)C(CNc4cccc5c(N)nccc45)(C2)C3)cc(=O)n1C (stereo not drawn) [Example 28, 4-((1-(((1-aminoisoquinolin-5-yl)amino)methyl)-2-(2-(2,3-dihydrobenzofuran-5-yl)propanoyl)-2-azabicyclo[2.1.1]hexan-4-yl)methoxy)-1,6-dimethylpyridin-2(1H)-one] | 10 to 100 |
| CC(=O)NC(C)C(=O)N1CC2(COc3cc(C)n(C)c(=O)c3)CC1(CNc1cccc3c(N)nccc13)C2 (stereo not drawn) [Example 29, N-(1-(1-(((1-Aminoisoquinolin-5-yl)amino)methyl)-4-(((1,6-dimethyl-2-oxo-1,2-dihydropyridin-4-yl)oxy)methyl)-2-azabicyclo[2.1.1]hexan-2-yl)-1-oxopropan-2-yl)acetamide] | 10 to 100 |
| Cn1ccc(OCC23CN(C(=O)N4CCOCC4)C(CNc4cccc5c(N)nccc45)(C2)C3)cc1=O [Example 31, 4-((1-(((1-aminoisoquinolin-5-yl)amino)methyl)-2-(morpholine-4-carbonyl)-2-azabicyclo[2.1.1]hexan-4-yl)methoxy)-1-methylpyridin-2(1H)-one] | 10 to 100 |
| C[C@H](NC(=O)N1CC2(COc3ccn(C)c(=O)c3)CC1(CNc1cccc3c(N)nccc13)C2)c1ccccc1 [Example 32, (S)-1-(((1-aminoisoquinolin-5-yl)amino)methyl)-4-(((1-methyl-2-oxo-1,2-dihydropyridin-4-yl)oxy)methyl)-N-(1-phenylethyl)-2-azabicyclo[2.1.1]hexane-2-carboxamide] | 10 to 100 |
| C[C@@H](NC(=O)N1CC2(COc3ccn(C)c(=O)c3)CC1(CNc1cccc3c(N)nccc13)C2)c1ccccc1 [Example 33, (R)-1-(((1-aminoisoquinolin-5-yl)amino)methyl)-4-(((1-methyl-2-oxo-1,2-dihydropyridin-4-yl)oxy)methyl)-N-(1-phenylethyl)-2-azabicyclo[2.1.1]hexane-2-carboxamide] | 10 to 100 |
| Cn1ccc(OCC23CN(C(=O)N4CCc5ccccc54)C(CNc4cccc5c(N)nccc45)(C2)C3)cc1=O [Example 34, 4-((1-(((1-aminoisoquinolin-5-yl)amino)methyl)-2-(indoline-1-carbonyl)-2-azabicyclo[2.1.1]hexan-4-yl)methoxy)-1-methylpyridin-2(1H)-one] | 10 to 100 |
| Cn1ccc(OCC23CN(C(=O)N4CCOc5ccccc54)C(CNc4cccc5c(N)nccc45)(C2)C3)cc1=O [Example 35, 4-((1-(((1-aminoisoquinolin-5-yl)amino)methyl)-2-(3,4-dihydro-2H-benzo[b][1,4]oxazine-4-carbonyl)-2-azabicyclo[2.1.1]hexan-4-yl)methoxy)-1-methylpyridin-2(1H)-one] | 10 to 100 |
| Cn1ccc(OCC23CN(C(=O)N4CCCc5ccccc54)C(CNc4cccc5c(N)nccc45)(C2)C3)cc1=O [Example 36, 4-((1-(((1-aminoisoquinolin-5-yl)amino)methyl)-2-(1,2,3,4-tetrahydroquinoline-1-carbonyl)-2-azabicyclo[2.1.1]hexan-4-yl)methoxy)-1-methylpyridin-2(1H)-one] | 100 to 300 |
| Cn1ccc(OCC23CN(C(=O)N4CCc5ccccc5C4)C(CNc4cccc5c(N)nccc45)(C2)C3)cc1=O [Example 37, 4-((1-(((1-aminoisoquinolin-5-yl)amino)methyl)-2-(1,2,3,4-tetrahydroisoquinoline-2-carbonyl)-2-azabicyclo[2.1.1]hexan-4-yl)methoxy)-1-methylpyridin-2(1H)-one] | 100 to 300 |
| Cn1ccc(OCC23CN(C(=O)Nc4ccc5c(c4)CCO5)C(CNc4cccc5c(N)nccc45)(C2)C3)cc1=O [Example 38, 1-(((1-aminoisoquinolin-5-yl)amino)methyl)-N-(2,3-dihydrobenzofuran-5-yl)-4-(((1-methyl-2-oxo-1,2-dihydropyridin-4-yl)oxy)methyl)-2-azabicyclo[2.1.1]hexane-2-carboxamide] | 1 to 10 |
| COc1ccc2c(c1)CCCN2C(=O)N1CC2(COc3ccn(C)c(=O)c3)CC1(CNc1cccc3c(N)nccc13)C2 [Example 39, 4-((1-(((1-aminoisoquinolin-5-yl)amino)methyl)-2-(6-methoxy-1,2,3,4-tetrahydroquinoline-1-carbonyl)-2-azabicyclo[2.1.1]hexan-4-yl)methoxy)-1-methylpyridin-2(1H)-one] | 100 to 300 |
| Cc1cc(OCC23CN(C(=O)N(C)[C@@H]4CCOC4)C(CNc4cccc5c(N)nccc45)(C2)C3)cc(=O)n1C [Example 40, (R)-1-(((1-aminoisoquinolin-5-yl)amino)methyl)-4-(((1,6-dimethyl-2-oxo-1,2-dihydropyridin-4-yl)oxy)methyl)-N-methyl-N-(tetrahydrofuran-3-yl)-2-azabicyclo [2.1.1]hexane-2-carboxamide] | 10 to 100 |
| Cc1cc(OCC23CN(C(=O)N(C)[C@H]4CCOC4)C(CNc4cccc5c(N)nccc45)(C2)C3)cc(=O)n1C [Example 41, (S)-1-(((1-aminoisoquinolin-5-yl)amino)methyl)-4-(((1,6-dimethyl-2-oxo-1,2-dihydropyridin-4-yl)oxy)methyl)-N-methyl-N-(tetrahydrofuran-3-yl)-2-azabicyclo[2.1.1]hexane-2-carboxamide] | 10 to 100 |
| C[C@@H](c1ccccc1)N(C)C(=O)N1CC2(COc3ccn(C)c(=O)c3)CC1(CNc1cccc3c(N)nccc13)C2 [Example 42, (S)-1-(((1-aminoisoquinolin-5-yl)amino)methyl)-N-methyl-4-(((1-methyl-2-oxo-1,2-dihydropyridin-4-yl)oxy)methyl)-N-(1-phenylethyl)-2-azabicyclo[2.1.1]hexane-2-carboxamide] | 10 to 100 |
| C[C@H](c1ccccc1)N(C)C(=O)N1CC2(COc3ccn(C)c(=O)c3)CC1(CNc1cccc3c(N)nccc13)C2 [Example 43, (R)-1-(((1-aminoisoquinolin-5-yl)amino)methyl)-N-methyl-4-(((1-methyl-2-oxo-1,2-dihydropyridin-4-yl)oxy)methyl)-N-(1-phenylethyl)-2-azabicyclo[2.1.1]hexane-2-carboxamide] | 1 to 10 |
| Cn1ccc(OCC23CN(C(=O)N4CC[C@@H](c5ccccc5)C4)C(CNc4cccc5c(N)nccc45)(C2)C3)cc1=O [Example 44, (S)-4-((1-(((1-aminoisoquinolin-5-yl)amino)methyl)-2-(3-phenylpyrrolidine-1-carbonyl)-2-azabicyclo[2.1.1]hexan-4-yl)methoxy)-1-methylpyridin-2(1H)-one] | 1 to 10 |
| Cc1cc(OCC23CN(C(=O)N4CC[C@@H](c5ccccc5)C4)C(CNc4cccc5c(N)nccc45)(C2)C3)cc(=O)n1C [Example 45, (S)-4-((1-(((1-aminoisoquinolin-5-yl)amino)methyl)-2-(3-phenylpyrrolidine-1-carbonyl)-2-azabicyclo[2.1.1]hexan-4-yl)methoxy)-1,6-dimethylpyridin-2(1H)-one] | 1 to 10 |
